# Data taken from patent US8235110B2, “Preconditioning an oilfield reservoir” (Gushor Inc., priority 2006, dated 2012).
# Assays:
# [1] = Heating agent in water solution in sealed pressure vessels at SAGD conditions (gas generation by decomposition); format: physicochemical
# Protocol: For illustrative purposes, an experiment conducted to simulate the impact of a recovery process on selected preconditioning agents under reservoir conditions shall be described. […] In one such experiment, the preconditioning agent was citric acid which was dissolved in water to create the water solution.
# [2] = cited from earlier work
# [3] = 5 grams agent, 205° C., approx. 73 hours
# [4] = 5.0 g agent and 50 milliliters water, three days at 205° C., SAGD conditions
compound,measurement,setting,value
"O=C(O)CC(O)(CC(=O)O)C(=O)O [Citric Acid, citric acid]",methane in headspace gas,[1]; [3],approximately 1500 ppm
same,propane in headspace gas,[1]; [3],~300 ppm
same,CO2 yielded in headspace,"[1]; approximately 5 grams agent (50 milliliters of 10% solution), 205° C., approx. 73 hours, approx. 990 psi",approximately 1.16 liters
same,carbon dioxide yield scaled,[1]; from 1 cubic meter of 10% solution,"23,200 liters"
"CCCC(C)=O [MPK, methyl propyl ketone]",Solubility in Water at 20° C.,[2],31 mg/mL
O=C(O)C(=O)O [oxalic acid dihydrate],carbon dioxide produced on conversion,[1]; [4],1.25 moles CO2/mole of oxalic acid dehydrate
same,methane produced on conversion,[1]; [4],0.56 moles/mole of oxalic acid dihydrate
